Laboratory results from ChEMBL document CHEMBL1136394, “Synthesis and in vivo imaging properties of [11C]befloxatone: a novel highly potent positron emission tomography ligand for mono-amine oxidase-A” (Bioorg Med Chem Lett, 2003).

What was measured:
[1] = Half life was determined; type: ADME; details: rat
[2] = system: Mus musculus; assay: Intravenous effective dose against L-5-hydroxytryptophan induced generalized tremors in mice; type: functional
[3] = system: Mus musculus; assay: Oral effective dose against L-5-hydroxytryptophan induced generalized tremors in mice; Range is 0.1-0.2 mg/Kg; type: functional
[4] = species on record: Mus musculus; assay: Oral effective dose against phenylethylamine-induced stereotypy in mice; type: functional
[5] = biological target: T1, Amine oxidase [flavin-containing] A (Homo sapiens, UniProt P21397); assay: Compound was tested for inhibition of MAOA in human brain, heart, liver and duodenum homogenates; Range is 1.9-3.6 nM; type: tissue-based
T1 sequence (P21397 whole entry): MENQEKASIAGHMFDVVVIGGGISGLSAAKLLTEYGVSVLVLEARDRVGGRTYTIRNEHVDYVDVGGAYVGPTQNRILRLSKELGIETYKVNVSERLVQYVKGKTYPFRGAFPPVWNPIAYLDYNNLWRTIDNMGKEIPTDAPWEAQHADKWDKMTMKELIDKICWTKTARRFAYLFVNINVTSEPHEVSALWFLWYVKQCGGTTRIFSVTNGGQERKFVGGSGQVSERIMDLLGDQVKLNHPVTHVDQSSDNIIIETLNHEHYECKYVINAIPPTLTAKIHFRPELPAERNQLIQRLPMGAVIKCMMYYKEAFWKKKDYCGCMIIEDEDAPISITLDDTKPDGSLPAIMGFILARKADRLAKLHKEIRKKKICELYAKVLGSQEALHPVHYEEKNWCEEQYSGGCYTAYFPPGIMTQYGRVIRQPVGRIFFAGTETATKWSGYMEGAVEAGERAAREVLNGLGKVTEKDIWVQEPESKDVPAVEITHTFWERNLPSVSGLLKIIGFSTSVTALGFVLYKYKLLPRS

[6] = biological target: T2, Amine oxidase [flavin-containing] A (Rattus norvegicus, UniProt P21396); assay: Compound was tested for inhibition of MAOA in rat brain, heart, liver and duodenum homogenates; Range is 1.9-3.6 nM; type: tissue-based
T2 sequence (P21396 whole entry): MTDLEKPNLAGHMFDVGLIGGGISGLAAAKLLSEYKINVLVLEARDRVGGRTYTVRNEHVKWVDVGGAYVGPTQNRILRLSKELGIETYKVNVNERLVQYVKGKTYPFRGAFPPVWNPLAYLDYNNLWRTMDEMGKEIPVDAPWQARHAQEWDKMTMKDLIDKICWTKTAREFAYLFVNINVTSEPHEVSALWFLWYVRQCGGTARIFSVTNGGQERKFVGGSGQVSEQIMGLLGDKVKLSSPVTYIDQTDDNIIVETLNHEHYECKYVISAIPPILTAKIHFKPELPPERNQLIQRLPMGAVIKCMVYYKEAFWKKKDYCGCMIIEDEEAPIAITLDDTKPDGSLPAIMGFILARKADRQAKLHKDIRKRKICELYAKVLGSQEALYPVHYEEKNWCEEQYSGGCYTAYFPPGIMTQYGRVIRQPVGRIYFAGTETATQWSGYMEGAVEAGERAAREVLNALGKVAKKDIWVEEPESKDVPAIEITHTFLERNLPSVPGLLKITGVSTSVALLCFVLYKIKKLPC

half-life [1]: 20.4 min
Ri [5]: 1.9 nM
Ri [6]: 1.9 nM
SMILES: COC[C@H]1CN(c2ccc(OCC[C@@H](O)C(F)(F)F)cc2)C(=O)O1 [BEFLOXATONE]
ED50 [2]: 0.07 mg/kg
ED50 [3]: 0.2 mg/kg
ED50 [4]: 58 mg/kg
